According to patent US10849872B2, “Methods and compositions for treating obesity, preventing weight gain, promoting weight loss, promoting slimming, or treating or preventing the development of diabetes” (NAN Global, LLC, priority 2014, dated 2020):

What was measured:
[1] = Shelf life of synthesised tyrphostin 9; assay type: physicochemical; conditions: at 25-35° C.
Description: This procedure yields about 800 g (about 95% yield) of a light-yellow microcrystalline solid that melts at 141-142° C. (uncorrected), presents UV absorption maxima at 247 nm and 365 nm and has an Rf value of 0.65 (using benzene as eluant and Merck's TLC silica gel 60 F254 plastic-backed sheets), with only one spot being observed. The mixed melting point of this compound and authentic tyrphostin 9 (acquired from Cayman Chemical) was also 141-142° C. (uncorrected), and its spectroscopic and chromatographic properties were identical to those of the authentic product. This compound is stable, with a shelf life of over 1 year at 25-35° C.; if necessary it may be recrystallized from ethanol.

[2] = system: overweight, obese, and/or diabetic subjects; test: Preliminary trial in overweight, obese, and/or diabetic subjects; assay type: in vivo, human
Description: A preliminary trial involving 75 overweight, obese, and/or diabetic subjects of both sexes was carried out over a twenty-month period. Exclusion criteria were: (1) recent significant weight gain, (2) a compromised thermoregulatory system, (3) pregnancy, (4) renal or hepatic failure, (5) use of illegal drugs or drugs that impair the body's heat dissipation mechanisms, (6) serious dysrhythmias, (7) unstable angina pectoris, (8) congestive heart failure, (9) severe cerebrovascular disease, (10) use of a pacemaker, (11) severe pulmonary impairment, (12) anemia, (13) Parkinson's disease, (14) body weight of less than 35 kilograms, (15) extensive psoriasis, (16) repeated episodes of hypoglycemia, (17) cystic fibrosis, (18) spinal cord injury, (19) a hereditary muscle disease, (20) chronic or recurrent venous thrombosis, (21) untreated hyperthyroidism, (22) exercise- or heat-induced angioedema, (23) seizure disorders, (24) schizophrenia, and (25) hypocalcemia.
Medications that reduce sweating, decrease vasodilatation, decrease cardiac output, or induce hypothalamic depression were not taken prior to, during, and immediately after treatment.
Obese participants, aged 16-72, were administered orally one or more hard gelatin capsules per day, each containing 20 mg of active ingredient (i.e., tyrphostin 9) and microcrystalline cellulose. They were instructed not to modify their food intake or to start a course of exercise. […] Afterwards, different dosing schedules were imposed, with refractory individuals being administered two or three capsules per day (i.e., 40 or 60 mg tyrphostin 9 per day), whereas only one capsule per day was administered to all others, who consequently received 20 mg tyrphostin 9 per day throughout the trial.
Participants were also instructed to prevent dehydration by drinking plenty of water and to replenish electrolytes by taking both potassium and magnesium supplements or V-8 Juice or Gatorade. Those receiving two capsules per day were asked to take them at the same time during weeks two and three and then to switch to one in the morning and one at night during weeks four and five. Participants receiving 40 mg tyrphostin 9 per day reported that sweating/body temperature peaked either during night time or day time, depending on whether the two capsules were taken in the morning or at night. […] Obese participants lost on average 4 kg per month, with cumulative weight losses of up to 48 kg.
Diabetic subjects (mostly obese and all presenting Type 2 diabetes mellitus) were similarly treated.

human neutrophils = conditions: well known properties; cited from earlier work
[3] = system: human cell lines (brain, liver, lung, intestine, kidney, and muscle); test: Preclinical toxicity study in human cell lines; assay type: cell-based; conditions: all examined human cell lines: brain
Description: (§1) A preclinical toxicity study of tyrphostin 9 was conducted in human cell lines (brain, liver, lung, intestine, kidney, and muscle), followed by feeding experiments of C57BL/6 mice. In the in vivo mice experiments, the mice were orally administered tyrphostin 9 during 15 days, at a dose of 0.175 mg/kg/day.

obese subjects = test: Synergistic effects of tyrphostin 9 and L-carnitine tartrate in obese subjects; assay type: in vivo, human; conditions: Group A: two capsules per day of 20 mg tyrphostin 9, oral
Description: Obese subjects with similar BMI and whose weight had remained essentially constant during the past 30 days were recruited, instructed not to modify their eating habits, food intake, or lifestyle, and randomly and blindly assigned to either treatment Group A, Group B, or Group C.
Subjects in Group A were administered (orally) two capsules per day, each containing 20 mg Tyrphostin 9 plus inert excipient; subjects in Group B were administered (orally) four capsules per day, each containing 5 mg tyrphostin 9 and about 700 mg L-carnitine tartrate; subjects in Group C were administered—in the morning—two capsules, each containing 20 mg Tyrphostin 9 plus inert excipient, and—at night time—four capsules, each containing about 700 mg of L-carnitine tartrate.
After a two week washout period, a new experiment was initiated. Subjects in Group A were orally administered two capsules per day, each containing 20 mg Tyrphostin 9 plus inert excipient, subjects in Group B were given eight capsules per day, each containing 5 mg Tyrphostin 9 plus about 700 mg L-carnitine tartrate, and subjects in Group C were administered—in the morning—two capsules, each containing 20 mg tyrphostin 9 plus inert excipient and, at night, eight capsules each containing about 700 mg L-carnitine tartrate.

[4] = system: differentiation of keratocytes into adipocytes; test: Inhibition of differentiation into adipocytes; assay type: cell-based
[5] = well known properties; cited from earlier work
C57BL/6 mice = test: Feeding experiments of C57BL/6 mice, oral tyrphostin 9; assay type: in vivo
Description: as §1

Structure (SMILES): CC(C)(C)c1cc(C=C(C#N)C#N)cc(C(C)(C)C)c1O [tyrphostin 9]
- shelf life [1]: over 1 year
- sweating/heat sensation, two capsules simultaneously versus one in the morning and one at night ([2]; 40 mg per day, weeks two and three simultaneous, weeks four and five split): more intense during weeks two and three
- slimming (waist circumference and other body measurements) ([2]; all participants, end of treatment): significant reductions in waist circumference
- blood glucose level ([2]; diabetic subjects (Type 2 diabetes mellitus, mostly obese)): significant decrease
- sweating / body temperature reported by participants ([2]; end of first week, one 20 mg capsule per day, oral): most of them reported sweating copiously and/or noticing a distinct increase in body temperature
- sweating / heat sensation reported by participants ([2]; end of trial, 20, 40 or 60 mg per day, all participants): sweating copiously and/or experienced an increased heat sensation
- adverse effects ([2]; human, in vivo): no adverse effects were reported
- muscle mass loss ([2]; human, in vivo): negligible
- rebound effect ([2]; human, in vivo): no “rebound effect” was observed
- tolerability of treatment ([2]; human, in vivo): very well tolerated
- blood lipid values ([2]; obese and diabetic subjects): lower blood lipid values
- cumulative weight losses ([2]; obese participants): up to 48 kg
- average weight loss ([2]; obese participants, 20-60 mg per day oral): 4 kg per month
- TNF-induced respiratory burst of human neutrophils (human neutrophils): inhibits
- toxicity in human cell lines [3]: low
- weight loss after 15 days (obese subjects): about 2 kg
- differentiation of keratocytes into adipocytes [4]: inhibits
- toxicity (in vitro and in vivo) [5]: very low toxicity
- toxicity or inflammation in treated mice (C57BL/6 mice; 0.175 mg/kg/day during 15 days, histochemical and behavioral criteria): no evidence of toxicity or inflammation
- adipocyte dimensions (C57BL/6 mice; concomitant with visceral lipid transport): reduction
- effect on chow intake (C57BL/6 mice; lean mice): no such effect
- apoptosis induction, obese versus lean mice (C57BL/6 mice; mouse, in vivo): more evident in obese mice than in lean mice
- glycogen storage in hepatocytes (C57BL/6 mice; mouse, in vivo): promotes
- visceral lipid transport from adipocytes (C57BL/6 mice; mouse, in vivo): promotes
- chow intake curtailed (C57BL/6 mice; obese mice grown on a high-fat diet, oral 0.175 mg/kg/day, 15 days): about 50%
- adipocyte apoptosis mediated by caspase-3 (C57BL/6 mice; to a greater extent than taurosporine): promotes
